pIC50: −log10 of the molar value.

For one series, the system named is LL-37 injected skin. Nature of the series: SAGE topical treatment LL-37 rosacea model. Format: in vivo, Balb/c mice. The following applies: topical administration. On the procedure:
SAGE topical treatment rosacea model. Balb/c mice were shaved […] area of skin on the back. We then began topical application of a hyaluronan-cased emollient containing 5% SAGEs (active emollient) or hyaluronic acid based emollient alone to this area of skin every 12 hours. Twenty-four hours later, we injected 40 μL of vehicle (PBS) or cationic peptide (at 320 μM concentration) subcutaneously into the shaved skin in the manner described previously. Injections and topical emollient applications were repeated every 12 h thereafter. Forty-eight hours after the initial injection (four injections in total), animals were lightly anesthetized as described previously. […] The intensity of erythema was assessed as a redness score (from 1 to 5), and the area of erythema was measured with calipers. […]
Myeloperoxidase (MPO) assay. […] Tissue MPO activity was measured using a method by Suzuki et. al. (Suzuki K, Ota H, Sasagawa S, Sakatani T, Fujikura T. Assay method for myeloperoxidase in human polymorphonuclear leukocytes. Anal Biochem 132:345-352, 1983) as modified by Young et. al. (Young J M, Spires D A, Bedord C J, Wagner B, Ballaron S J, De oung L M. The mouse ear inflammatory response to typical arachidonic acid. J Invest Dermatol 82:367-371, 1984). […] The homogenate was transferred quantitatively to a microcentrifuge tube with an additional 0.75 mL HTAB in PBS. […]

The next series concerns the target T1, RAGE/S100B (Homo sapiens, UniProt Q15109).
T1 construct: purchased R&D Systems (Minneapolis, Minn.)
Nature of the series: Solid phase binding assay, RAGE to S100b calgranulin. The following applies: Table 2. On the procedure:
(§1) Solid phase binding assays. Solid phase binding assays were used to study the ability of SAGEs to inhibit RAGE binding to its ligands. For studies of the effect of SAGEs on RAGE binding to its ligands, polyvinyl 96-well plates were coated with 5 μg/well of specific ligand (CML-BSA, HMGB-I or S100b calgranulin). Plates were incubated overnight at 4° C. and washed thrice with PBS-0.05% Tween-20 (PBST). Separately, RAGE-Fc chimera (100 μL containing 0.5 μg/ml in PBST-0.1% BSA) was incubated with an equal volume of serially diluted SAGEs (0.001 to 1,000 μg/ml in PBST-BSA) overnight at 4° C. The following day, 50 μL of RAGE-SAGE mix was transferred to each respective ligand-coated well and incubated at 37° C. for 2 h. Wells were then washed four times with PBST. To detect bound RAGE, 50 μL of anti-RAGE antibody (0.5 μg/ml) was added to each well, the mixture was incubated for 1 h at room temperature, and wells were washed again four times with PBST. Horse-radish peroxidase conjugated secondary antibody (1:10,000 antibody dilution in PBST; 50 μL per well) was added, wells were incubated for 1 h at room temperature, and then washed once with PBST. A colorimetric reaction was initiated by addition of 50 μL of tetramethyl benzidine chromogen (TMB single solution chromogen) and terminated after 15 min by addition of 50 μL of 1 N HCl. Absorbance at 450 nm was read using an automated microplate reader.

In the next series the target is T2, human leukocyte elastase (Homo sapiens, UniProt P08246).
T2 sequence (P08246 30-267): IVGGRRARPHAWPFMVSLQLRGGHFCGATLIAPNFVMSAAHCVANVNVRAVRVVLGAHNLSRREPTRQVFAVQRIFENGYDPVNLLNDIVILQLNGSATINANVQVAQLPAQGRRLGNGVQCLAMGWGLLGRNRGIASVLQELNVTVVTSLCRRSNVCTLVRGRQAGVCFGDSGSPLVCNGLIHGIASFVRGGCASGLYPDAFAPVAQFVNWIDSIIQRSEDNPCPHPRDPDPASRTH
Nature of the series: Human leukocyte elastase activity assay, chromogenic substrate. Format: biochemical. Conditions: for Leukocyte Elastase: Table 2. From the text:
Enzymatic assays. […] Nat Biotech 26:669-675, 2008).

In a further series the target is T3, P-Selectin/PSGL (Homo sapiens, UniProt P16109).
T3 construct: purchased R&D Systems (Minneapolis, Minn.)
T3 sequence (P16109 with tags, fused parts or gaps limits assumed): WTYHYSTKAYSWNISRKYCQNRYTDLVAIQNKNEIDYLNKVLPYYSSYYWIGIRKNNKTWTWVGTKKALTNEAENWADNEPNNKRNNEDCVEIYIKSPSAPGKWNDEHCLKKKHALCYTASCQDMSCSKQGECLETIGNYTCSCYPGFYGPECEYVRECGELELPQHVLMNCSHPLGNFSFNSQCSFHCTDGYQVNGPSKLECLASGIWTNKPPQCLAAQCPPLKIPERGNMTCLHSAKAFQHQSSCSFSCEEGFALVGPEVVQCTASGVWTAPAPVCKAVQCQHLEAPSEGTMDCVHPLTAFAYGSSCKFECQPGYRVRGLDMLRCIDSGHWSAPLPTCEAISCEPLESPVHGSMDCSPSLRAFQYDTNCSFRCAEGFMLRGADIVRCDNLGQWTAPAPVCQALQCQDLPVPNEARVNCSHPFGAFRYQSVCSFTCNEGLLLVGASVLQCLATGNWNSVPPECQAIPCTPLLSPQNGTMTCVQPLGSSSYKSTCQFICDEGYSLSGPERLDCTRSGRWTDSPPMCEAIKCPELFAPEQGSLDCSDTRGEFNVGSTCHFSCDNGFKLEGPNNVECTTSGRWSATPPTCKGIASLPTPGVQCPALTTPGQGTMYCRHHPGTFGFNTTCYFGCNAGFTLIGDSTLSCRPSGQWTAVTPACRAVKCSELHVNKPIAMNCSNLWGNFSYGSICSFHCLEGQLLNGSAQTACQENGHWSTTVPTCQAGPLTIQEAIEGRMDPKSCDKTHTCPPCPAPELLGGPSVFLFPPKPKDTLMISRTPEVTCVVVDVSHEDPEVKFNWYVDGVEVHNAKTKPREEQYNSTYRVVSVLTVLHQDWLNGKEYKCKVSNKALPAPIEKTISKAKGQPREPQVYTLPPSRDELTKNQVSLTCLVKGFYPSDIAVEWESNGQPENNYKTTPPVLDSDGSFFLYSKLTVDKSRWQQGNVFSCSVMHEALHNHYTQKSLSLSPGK
Nature of the series: U937 monocyte binding to P-selectin (cell binding assay). Conditions: Table 2; U937 binding to P-selectin-Fc. The procedure:
(§2) Cell Binding Assays. The effect of SAGEs on binding of U937 monocytes to P-selectin or RAGE was studied in high-bind micro plates coated with 8 μg/ml protein A ([…]) in 0.2 M carbonate-bicarbonate buffer (pH 9.4). Plates were washed with phosphate buffered saline containing 1% BSA (PBS-BSA), and P-selectin-Fc or RAGE-Fc chimera (50 μL containing 1 μg) was added to each well and incubated for 2 h at room temperature or overnight at 4° C., respectively. Following incubation, wells were washed twice with PBS-BSA. […] As a negative control, 50 μL of 10 mM EDTA was added to select wells to prevent cell binding through sequestration of calcium. At the end of the incubation period, 50 μL of U937 cells (10^5 cells/well, calcein-labeled according to manufacturer's instructions) were added to each well and plates were incubated an additional 30 min at room temperature. The wells were then washed thrice with PBS, and bound cells were lysed by addition of 100 μL of Tris-TritonX-100 containing buffer. Fluorescence was measured on a microplate reader using excitation of 494 nm and emission of 517 nm.

Series [1] concerns the target T4, Hageman factor (Factor XII) (Homo sapiens, UniProt P00748).
T4 sequence (P00748 20-615): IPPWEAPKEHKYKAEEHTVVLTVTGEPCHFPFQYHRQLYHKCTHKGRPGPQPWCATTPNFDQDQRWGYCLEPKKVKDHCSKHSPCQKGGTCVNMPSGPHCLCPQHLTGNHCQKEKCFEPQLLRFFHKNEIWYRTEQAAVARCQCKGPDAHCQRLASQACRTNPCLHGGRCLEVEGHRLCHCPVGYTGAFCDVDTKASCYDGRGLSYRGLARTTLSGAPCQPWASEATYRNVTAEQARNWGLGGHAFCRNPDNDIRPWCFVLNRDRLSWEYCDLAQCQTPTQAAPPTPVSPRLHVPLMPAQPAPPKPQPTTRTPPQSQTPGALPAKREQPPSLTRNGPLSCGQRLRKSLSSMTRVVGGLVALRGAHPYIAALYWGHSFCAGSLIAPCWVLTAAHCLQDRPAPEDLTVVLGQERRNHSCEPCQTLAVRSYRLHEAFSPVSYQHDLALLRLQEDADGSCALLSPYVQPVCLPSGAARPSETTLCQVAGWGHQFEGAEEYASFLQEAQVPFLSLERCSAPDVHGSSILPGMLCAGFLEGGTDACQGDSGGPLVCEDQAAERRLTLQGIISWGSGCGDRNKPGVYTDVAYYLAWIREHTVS
Experimental: Enzymatic assays. […] Pooled human plasma (5 μl) was incubated with 100 μl of SAHA (0.1 to 1000 μg/ml) in 0.05 M HEPES containing Triton X-100 for 5 min at 5° C.
SAGEs were screened for their ability to stimulate intrinsic coagulation (activation of Hageman factor). Pooled human plasma was incubated with heparin or low molecular weight (Lmw) sulfated and fluoroalkylated HAs (Lmw-OSFHA-1, Lmw-OSFHA-2) and amidolytic activity was determined using the substrate D-cyclohydrotyrosyl-Gly-Arg-p-NA.

The next series has as its target T5, RAGE/CML-BSA (Homo sapiens, UniProt Q15109).
T5 construct: purchased R&D Systems (Minneapolis, Minn.)
Nature of the series: Solid phase binding assay, RAGE to CML-BSA. The following applies: Table 2. The procedure:
as §1

The next series deals with T6, RAGE/Mac-1 (Homo sapiens, UniProt Q15109).
T6 construct: purchased R&D Systems (Minneapolis, Minn.)
T6 sequence (Q15109 with tags, fused parts or gaps limits assumed): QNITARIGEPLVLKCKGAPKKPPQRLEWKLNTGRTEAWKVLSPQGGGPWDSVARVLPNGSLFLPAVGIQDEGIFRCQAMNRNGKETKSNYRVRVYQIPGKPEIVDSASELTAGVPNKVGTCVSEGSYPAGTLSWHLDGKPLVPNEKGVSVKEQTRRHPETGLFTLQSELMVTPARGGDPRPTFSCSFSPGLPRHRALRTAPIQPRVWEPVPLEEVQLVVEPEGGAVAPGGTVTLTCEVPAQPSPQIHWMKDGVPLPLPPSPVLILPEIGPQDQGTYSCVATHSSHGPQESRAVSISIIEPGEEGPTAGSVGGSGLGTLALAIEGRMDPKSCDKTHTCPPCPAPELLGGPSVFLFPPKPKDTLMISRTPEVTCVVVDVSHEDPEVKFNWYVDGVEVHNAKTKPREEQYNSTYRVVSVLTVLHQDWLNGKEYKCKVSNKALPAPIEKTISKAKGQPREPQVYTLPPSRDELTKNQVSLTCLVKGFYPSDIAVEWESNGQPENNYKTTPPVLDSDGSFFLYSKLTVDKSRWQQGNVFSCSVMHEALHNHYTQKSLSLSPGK
Nature of the series: U937 monocyte binding to RAGE (cell binding assay). Conditions: Table 2; U937 binding to RAGE-Fc. The procedure: as §2

The test system of series [2] is human neonatal epidermal keratinocytes. Nature of the series: Keratinocyte proliferation assay. Type of series: cell-based. The following applies: high molecular weight derivatives, 100 μg/ml, FIG. 8. The procedure: Fourth, SAGEs are potent inhibitors of the proliferation of human keratinocytes. In these assays human neonatal epidermal keratinocytes were cultured in the presence and absence of SAGEs or other inhibitors, and proliferation was measured by adding a dye that is reduced in direct proportion to the number of viable cells present.

Another series has as its target T7, RAGE/HMGB1 (Homo sapiens, UniProt Q15109).
T7 construct: purchased R&D Systems (Minneapolis, Minn.)
Nature of the series: Solid phase binding assay, RAGE to HMGB-1 (amphoterin). The following applies: Table 2. The procedure: as §1

For a further series, the system named is nHEK cells. Nature of the series: Cytotoxicity (MTS). Format: cell-based, human. Conditions: up to 10 mg/ml.

T5 sequence (Q15109 with tags, fused parts or gaps limits assumed): as above
T1 sequence (Q15109 with tags, fused parts or gaps limits assumed): as above
T7 sequence (Q15109 with tags, fused parts or gaps limits assumed): as above

“Hyaluronic Acid [HA, reference compound]”: the “inflammation and MPO activities, SAGE vs. HA” value in the series on LL-37 injected skin was “did not alleviate inflammation”.
On RAGE/S100B, P—OSFHA-1(DS 1) [GM-231101] yielded an RAGE/S100B of 14.6 µg/mL. In addition, at human leukocyte elastase, the “Leukocyte Elastase” value is 0.185 µg/mL. Also, the P-Selectin/PSGL at P-Selectin/PSGL is 12.048 µg/mL. In [1], the “Hageman Factor” value was determined as 400 µg/mL.
At RAGE/S100B, P—OSFHA-1(DS 2) [GM-231201] showed an RAGE/S100B of 8.82 µg/mL. On RAGE/CML-BSA, this substance had an RAGE/CML-BSA of 2.579 µg/mL. In addition, the RAGE/Mac-1 at RAGE/Mac-1 came out at 28.4 µg/mL. Further, the “Leukocyte Elastase” value at human leukocyte elastase was determined as 0.487 µg/mL. The same substance displayed a P-Selectin/PSGL at P-Selectin/PSGL of 0.126 µg/mL. The “Hageman Factor” value in [1] amounted to 400 µg/mL.
P—OSFHA-2(DS 1) [GM-331101] gave an RAGE/S100B at RAGE/S100B of 4.557 µg/mL. Further, on human leukocyte elastase, the “Leukocyte Elastase” value was found to be 0.375 µg/mL. The substance also showed a P-Selectin/PSGL on P-Selectin/PSGL of 8.958 µg/mL. Moreover, the “Hageman Factor” value in series [1] worked out at 400 µg/mL.
With P—OSFHA-2(DS 2) [GM-331201], the RAGE/S100B at RAGE/S100B was 2.28 µg/mL. The same substance came in with an RAGE/CML-BSA on RAGE/CML-BSA of 1.682 µg/mL. Moreover, the “Leukocyte Elastase” value at human leukocyte elastase worked out at 0.353 µg/mL. For the same substance, the “Hageman Factor” value in series [1] worked out at 40 µg/mL.
A word on the pIC50: it is the IC50 on a negative log10 scale, so that one unit is a factor of ten. In turn, P—OSMeHA(DS 1) [GM-131101] returned an RAGE/S100B at RAGE/S100B of 31.069 µg/mL. Besides, the RAGE/CML-BSA on RAGE/CML-BSA turned out to be 6.09 µg/mL. For the same substance, at RAGE/Mac-1, the RAGE/Mac-1 turned out to be 0.51 µg/mL. In addition, the pIC50 on human leukocyte elastase (FIG. 4, read-out: IC50 for HLE) was 8.46. In addition, the “Leukocyte Elastase” value at human leukocyte elastase was 0.285 µg/mL. Moreover, the “inhibition of keratinocyte proliferation” value in series [2] was “less active”. Further, at RAGE/HMGB1, the RAGE/HMGB1 came out at 2.68 µg/mL. The substance also showed a P-Selectin/PSGL at P-Selectin/PSGL of 5.61 µg/mL. In addition, the “toxicity to nHEK cells” value with nHEK cells is listed as “non-toxic”.
As for P—OSMeHA(DS 2) [GM-131201], at RAGE/S100B, the RAGE/S100B is 0.06 µg/mL. The same substance gave an RAGE/CML-BSA on RAGE/CML-BSA of 0.044 µg/mL. Further, the RAGE/Mac-1 on RAGE/Mac-1 amounted to 0.3 µg/mL. In addition, the “Leukocyte Elastase” value on human leukocyte elastase was found to be 0.42 µg/mL. The substance further returned a P-Selectin/PSGL at P-Selectin/PSGL of 0.5 µg/mL. The “Hageman Factor” value in series [1] came out at 0.4 µg/mL.
